ChEMBL document CHEMBL1131666, “Discovery of a novel series of selective MMP inhibitors: identification of the gamma-sulfone-thiols” (Bioorg Med Chem Lett, 1999)

Key:
Collagenase 3 = Collagenase 3 (Homo sapiens, UniProt P45452); experiment: Inhibition of Matrix metalloprotease-13 (MMP-13)
Interstitial collagenase = target: T1, Interstitial collagenase (Homo sapiens, UniProt P03956); experiment: Inhibition of matrix metalloprotease-1 (MMP-1)
T1 sequence (P03956 whole entry): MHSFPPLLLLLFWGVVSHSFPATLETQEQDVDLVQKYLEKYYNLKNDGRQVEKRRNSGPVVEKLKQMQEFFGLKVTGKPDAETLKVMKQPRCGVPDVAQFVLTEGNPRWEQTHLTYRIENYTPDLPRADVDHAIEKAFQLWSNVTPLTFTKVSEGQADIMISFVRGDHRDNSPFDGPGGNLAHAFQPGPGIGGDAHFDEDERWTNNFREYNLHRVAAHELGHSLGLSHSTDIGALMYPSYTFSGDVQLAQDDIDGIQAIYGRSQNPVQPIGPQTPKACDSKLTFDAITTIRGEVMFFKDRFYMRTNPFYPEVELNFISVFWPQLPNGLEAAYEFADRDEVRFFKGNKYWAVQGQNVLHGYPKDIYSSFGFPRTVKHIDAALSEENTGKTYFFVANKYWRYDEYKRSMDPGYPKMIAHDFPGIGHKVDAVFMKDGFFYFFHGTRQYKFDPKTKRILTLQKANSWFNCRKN

Neutrophil collagenase = Neutrophil collagenase (Homo sapiens, UniProt P22894); experiment: Inhibition of Matrix metalloprotease-8
Sequence of Neutrophil collagenase (P22894 whole entry): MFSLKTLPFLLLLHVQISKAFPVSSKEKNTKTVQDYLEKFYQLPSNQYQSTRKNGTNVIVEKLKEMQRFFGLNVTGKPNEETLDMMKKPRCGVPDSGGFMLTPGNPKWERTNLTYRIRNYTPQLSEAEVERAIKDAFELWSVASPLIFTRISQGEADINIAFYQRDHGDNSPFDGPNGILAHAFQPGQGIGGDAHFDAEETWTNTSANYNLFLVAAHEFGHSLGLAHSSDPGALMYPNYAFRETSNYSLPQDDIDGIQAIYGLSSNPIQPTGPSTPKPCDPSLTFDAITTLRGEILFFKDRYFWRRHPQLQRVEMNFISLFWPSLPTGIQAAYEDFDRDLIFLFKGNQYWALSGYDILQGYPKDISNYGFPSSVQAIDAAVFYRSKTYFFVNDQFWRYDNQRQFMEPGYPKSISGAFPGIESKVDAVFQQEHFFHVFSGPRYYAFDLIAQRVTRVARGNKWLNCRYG

Stromelysin-1 = Stromelysin-1 (Homo sapiens, UniProt P08254); experiment: Inhibition of matrix metalloprotease-3 (MMP-3)
Sequence of Stromelysin-1 (P08254 whole entry): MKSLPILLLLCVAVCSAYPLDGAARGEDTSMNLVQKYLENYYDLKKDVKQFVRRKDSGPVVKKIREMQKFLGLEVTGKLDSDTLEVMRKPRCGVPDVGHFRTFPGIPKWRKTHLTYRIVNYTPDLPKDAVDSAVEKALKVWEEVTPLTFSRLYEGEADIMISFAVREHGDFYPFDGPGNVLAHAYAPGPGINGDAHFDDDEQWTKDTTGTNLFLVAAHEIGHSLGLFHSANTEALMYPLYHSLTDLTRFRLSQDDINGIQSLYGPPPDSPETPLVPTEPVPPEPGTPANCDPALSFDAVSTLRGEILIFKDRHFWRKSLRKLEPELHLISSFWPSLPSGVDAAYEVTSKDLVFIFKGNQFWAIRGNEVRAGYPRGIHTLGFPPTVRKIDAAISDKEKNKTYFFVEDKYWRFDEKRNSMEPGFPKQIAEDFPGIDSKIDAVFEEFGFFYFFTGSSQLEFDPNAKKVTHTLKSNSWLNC

Row | Compound | IC50 (Collagenase 3) [nM] | IC50 (Interstitial collagenase) [nM] | IC50 (Neutrophil collagenase) [nM] | IC50 (Stromelysin-1) [nM]
1 | COC(=O)C(S)CCS(=O)(=O)c1ccc(OC)cc1 (stereo not drawn) |  | 4000 |  | 
2 | CCCC(CCS)S(=O)(=O)c1ccc(OC)cc1 (stereo not drawn) | 6 |  |  | 
3 | COc1ccc(S(=O)(=O)CC(C)(C)CS)cc1 |  | > 10000 |  | 
4 | COc1ccc(S(=O)(=O)C(CCS)c2ccccc2)cc1 (stereo not drawn) |  | > 10000 |  | 
5 | O=S(=O)(CCCS)c1ccc(Oc2ccccc2)cc1 | 0.5 | 1500 | 4 | 500
6 | O=S(=O)(CCCS)c1ccc(Sc2ccccc2)cc1 |  | > 10000 | 36 | 150

Other lines, results leading:

Row | IC50 (Collagenase 3) [nM] | IC50 (Interstitial collagenase) [nM] | IC50 (Neutrophil collagenase) [nM] | IC50 (Stromelysin-1) [nM] | Compound
7 | 32 | 8000 |  |  | COc1ccc(S(=O)(=O)CCC(C)S)cc1 (stereo not drawn)
8 |  | > 10000 |  |  | CCCCC(S)CCS(=O)(=O)c1ccc(OC)cc1 (stereo not drawn)
9 | 250 | 5000 |  |  | COc1ccc(S(=O)(=O)C[C@@H](C)CS)cc1
10 |  | > 10000 |  |  | COc1ccc(S(=O)(=O)C[C@H](C)CS)cc1
11 |  | > 10000 |  |  | COc1ccc(S(=O)(=O)CCCS)cc1
